# From US20180203014A1, “COMPOSITIONS FOR DETECTING CIRCULATING INTEGRIN BETA-3 BIOMARKER AND METHODS FOR DETECTING CANCERS AND ASSESSING TUMOR PRESENCE OR PROGRESSION, CANCER DRUG RESISTANCE AND TUMOR STEMNESS” (The Regents of the University of California, priority 2015, published 2018)
# Entries after “also recorded” stand apart in the source; their conditions may differ.
# Columns and labels:
# [1] = tested on: panel of human carcinoma cell lines; assay: Tumorsphere assay (Example 2); format: cell-based; conditions: for tumorsphere formation in vitro, combination with erlotinib: β3-positive cells (FG-β3, PANC-1, A549), erlotinib 0.5 μM with lenalidomide 1-2 μM or bortezomib 4 nM; for impact of integrin β3 expression on resistance: β3-negative vs β3-positive cells
# Protocol: Tumorsphere assay was performed as previously described (10). […] The media was replaced with fresh inhibitor 2/6 times a week. Survival curves were generated at least with five concentration points.
# [2] = tested on: subcutaneous β3-positive tumors (FG-β3, FG-R); assay: Subcutaneous β3-positive tumors in mice; conditions: for tumor growth, monotherapy: lenalidomide 25 mg/kg/day or bortezomib 0.25 mg/kg alone; for tumor growth in vivo, combination with erlotinib: with erlotinib 25 mg/kg/day, lenalidomide 25 mg/kg/day (FG-β3) or bortezomib 0.25 mg/kg (FG-R)
# Protocol: FG pancreatic carcinoma cells (1×10^6 tumor cells in 30 μl of PBS) were injected into the pancreas of 6- to 8-week-old male nude mice as previously described (10). Tumors were established for 2-3 weeks (tumor sizes were monitored by ultrasound) before beginning dosing. […] FG pancreatic carcinoma cells (1×10^6 tumor cells in 30 μl of PBS) were injected into the pancreas of 6- to 8-week-old male nude mice as previously described (10). Tumors were established for 2-3 weeks (tumor sizes were monitored by ultrasound) before beginning dosing. […] Tumors were measured every 2-3 days with calipers until they were harvested at day 10,16 or after acquired resistance.
# Tumor dimensions are reported as the fold change relative to size of the same tumor on Day 1. Mean±SEM, (A) *P=0.042 using a one way ANOVA test. n=6 mice per group. […] Tumor dimensions are reported as the fold change relative to size of the same tumor on Day 1. *P=0.0134 using a one way ANOVA test. n=8 mice per group.
# [3] = tested on: FG and FG-β3 cells; assay: Tumor sphere formation assay (Example 1); format: cell-based, human; conditions: for effect of αvβ3 expression on drug resistance (tumor sphere formation): FG lacking β3 vs FG-β3, in vitro
# Protocol: (§1) Tumor spheres formation assays were performed essentially as described previously^17. […] Colonies were stained with crystal violet and scored with an Olympus SZH10 microscope. Survival curves were generated at least with five concentration points.
# [4] = tested on: β3-positive and β3-negative tumor cells (FG, PANC-1); assay: Self renewal tumorsphere assay and soft agar assay, 3D (Example 3); format: cell-based, human; conditions: β3 ectopic expression (FG) or knockdown (PANC-1)
# Protocol: Tumorsphere assay was performed as previously described. Soft agar formation assays were performed essentially as described previously. […] The media was replaced with fresh inhibitor 2/5 times a week. Survival curves were generated at least with five concentration points. […] Cells were treated with a dose response of gemcitabine, cisplatin, erlotinib, lapatinib and linsitinib. […] Tumor volumes are expressed as mean±SEM. *P<0.05. […] Results are expressed as % tumor weight compared to vehicle control. *P<0.05. […] Data are mean±SE; **P<0.001. […] Scale bar, 50 μm.
# [5] = tested on: β3-positive cells (FG-β3, MDA-MB231, FG-R); assay: Anchorage independent growth in soft agar, NFkB inhibitors with erlotinib (FIG. 31); format: cell-based, human; conditions: Lenalidomide 2 μM, PS-1145 1 μM, 10 to 15 days; for response of colonies / tumorsphere formation to single agent: β3-positive cells (intrinsic or acquired resistant), each agent alone: erlotinib 0.5 μM; for tumorsphere formation, combination with erlotinib: β3-positive cells, in combination with erlotinib 0.5 μM
# Description: Then, the soft agar were stained with crystal violet and the colonies were counted manually.
# [6] = tested on: PANC-1 cells; assay: Tumor sphere formation assay, knockdown of αvβ3 (Example 1); format: cell-based, human
# Protocol: as §1, with “previously^17. Briefly, cells were seeded at 1000 to 2000 cells per well and grown for 12 days to 3 weeks.” for “previously^17.”
# [7] = tested on: orthotopic FG pancreatic tumors; assay: Orthotopic pancreas cancer xenograft model; format: in vivo, mice
# Protocol: All mouse experiments were carried out in accordance with approved protocols from the UCSD animal subjects committee and with the guidelines set forth in the NIH Guide for the Care and Use of Laboratory Animals. Tumors were generated by injection of FG human pancreatic carcinoma cells (10^6 tumor cells in 30 μL of sterile PBS) into the tail of the pancreas of 6-8 week old male immune compromised nu/nu mice.
# Tumors were generated as previously described (JAY).
# [8] = tested on: H441 human lung adenocarcinoma orthotopic tumors; assay: Orthotopic lung cancer xenograft model; format: in vivo, mice
# Protocol: FG pancreatic carcinoma cells (1×10^6 tumor cells in 30 μl of PBS) were injected into the pancreas of 6- to 8-week-old male nude mice as previously described (10). Tumors were established for 2-3 weeks (tumor sizes were monitored by ultrasound) before beginning dosing. […] H441 lung adenocarcinoma cells were generated as previously described (21). […] FG pancreatic carcinoma cells (1×10^6 tumor cells in 30 μl of PBS) were injected into the pancreas of 6- to 8-week-old male nude mice as previously described (10). Tumors were established for 2-3 weeks (tumor sizes were monitored by ultrasound) before beginning dosing. […] H441 lung adenocarcinoma cells were generated as previously described (21). […] Tumors were measured every 2-3 days with calipers until they were harvested at day 10,16 or after acquired resistance.
# [9] = tested on: phosphorylated TBK1 and NF-κB; assay: Immunoblot analysis of RalB effectors in cells grown in suspension and treated with erlotinib; format: cell-based, human; conditions: αvβ3 negative cells, erlotinib 0.5 μM
# Protocol: Cells were lysed in either RIPA lysis buffer (50 mM Tris pH 7.4, 100 mM NaCL, 2 mM EDTA, 10% DOC, 10% Triton, 0.1% SDS) or Triton lysis buffer (50 mM Tris pH 7.5, 150 mN NaCl, 1 mM EDTA, 5 mM MgCl2, 10% Glycerol, 1% Triton) supplemented with complete protease and phosphatase inhibitor mixtures (Roche) and centrifuged at 13,000 g for 10 min at 4° C. Protein concentration was determined by BCA assay. 500 μg to 1 mg of protein were immunoprecipitated with 3 μg of anti-integrin αvβ-3 (LM609) overnight at 4° C. following by capture with 25 μl of protein A/G (Pierce). Beads were washed five times, eluted in Laemmli buffer, resolved on NuPAGE 4-12% Bis-Tris Gel (Invitrogen) and immunoblotting was performed with anti-integrin β3 (Santa Cruz), anti-RalB (Cell Signaling Technology), anti KRAS (Santa Cruz). For immunoblot analysis, 25 of protein was boiled in Laemmli buffer and resolved on 8% to 15% gel. […]
# [10] = tested on: stage IV non-small cell lung cancer; assay: Serial biopsies from NSCLC patients on erlotinib therapy; format: in vivo, human
# Protocol: All biopsies are from lung or pleural effusion. […] This work was approved by the UCSD Institutional Review Board (IRB).
# Immunostaining was performed according to the manufacturer's recommendations (Vector Labs) on […] sections of paraffin-embedded tumors from tumor biopsies from lung cancer patients. Tumor sections were processed as previously described (23) using integrin β3 (Abcam clone EP2417Y). Sections stained with integrin β3 were scored by a H-score according to the staining intensity (SI) on a scale 0 to 3 within the whole tissue section.
# [11] = tested on: HCC827 human lung cancer cells; assay: Circulating tumor cells from orthotopic HCC827 lung tumors (FIG. 30); format: in vivo, mice; conditions: orthotopic HCC827, 3 months at 25 mg/kg/day
# Description: FIG. 30 illustrates data showing integrin β3 (CD61) is a RTKI (Receptor Tyrosine Kinase (RTK) Inhibitor) drug resistance biomarker on the surface of circulating tumor cells; as discussed in detail in Example 2, below.
# [12] = tested on: HCC827 xenograft tumors; assay: HCC827 xenograft tumors treated until acquired resistance; format: in vivo, mice; conditions: erlotinib 12.5 mg/kg/day until acquired resistance
# Description: Tumor volumes are expressed as mean±SEM. *P<0.05. […] Results are expressed as % tumor weight compared to vehicle control. *P<0.05. […] Data are mean±SE; **P<0.001. […] Scale bar, 50 μm.
# [13] = tested on: integrin αvβ3 (CD61); assay: Flow cytometry of αvβ3 after prolonged EGFR TKI exposure in vitro; format: cell-based, human; conditions: FG, Miapaca-2 and other erlotinib sensitive lines, weeks of treatment
# Protocol: Human pancreatic (FG, PANC-1, Miapaca-2 (MP2), CFPAC-1, XPA-1, CAPAN-1, BxPc3), breast (MDAMB231, MDAMB468 (MDA468), BT20, SKBR3, BT474), colon (SW480) and lung (A549, H441) cancer cell lines were grown in ATCC recommended media supplemented with 10% fetal bovine serum, glutamine and non-essential amino acids. We obtained FG-β3, FG-D119A mutant and PANC-shβ3 cells as previously described^17. […] Cisplatin was generated from Sigma-Aldrich. Lenalidomide was purchased from LC Laboratories.
# 200,000 cells, after drug or vehicle treatment, were washed with PBS and incubated for 20 minutes with the Live/Dead reagent (Invitrogen) according to the manufacturer's instruction, then, cells were fixed with 4% paraformaldehyde for 15 min and blocked for 30 min with 2% BSA in PBS. Cells were stained with fluorescent-conjugated antibodies to CD61 (LM609), CD44 (eBioscience), CD24 (eBioscience), CD34 (eBioscience), CD133 (Santa Cruz), CD56 (eBioscience), CD29 (P4C10) and CD49f (eBioscience). All antibodies were used at 1:100 dilutions, 30 minutes at 4° C. After washing several times with PBS, cells were analyzed by FACS.
# [14] = tested on: subcutaneous A549 xenografts; assay: Subcutaneous A549 xenografts, integrin β3 knockdown; format: in vivo, mice; conditions: A549 shCTRL vs sh β3, erlotinib 25 mg/kg/day, 16 days
# Description: (A) Immunoblots showing integrin β3 knockdown efficiency in cells used in FIG. 1. […] Tumor volumes are expressed as mean±SEM. n=8 mice per group. (C) Immunoblots showing expression of indicated proteins of representative tumors. […] (E) Effect of integrin β3 expression on lapatinib, OSI-906, cisplatin and gemcitabine n=3; mean±SEM. (F) Viability assay (CellTiter-Glo assay) of FG and FG-β3 cells grown in suspension in media with or without serum. n=2; mean+SEM. *P<0.05. **P<0.01.
# (a) Effect of integrin β3 expression (ectopic expression for FG and integrin β3-specific knockdown for PANC-1) cells on drug treatment response. Cells were treated with a dose response of gemcitabine, cisplatin, erlotinib, lapatinib and linsitinib. […] Tumor volumes are expressed as mean±SEM. *P<0.05. […] Results are expressed as % tumor weight compared to vehicle control. *P<0.05. […] (f) Relative mRNA expression of integrin β3 (ITGB3) in HCC827 vehicle-treated tumors (n=5) or erlotinib-treated tumors (n=7) from (e) after acquired resistance. Data are mean±SE; **P<0.001. […] Scale bar, 50 μm. […] The HCC827 erlotinib-treated tumors have been digested and sorted in two groups: the integrin β3− and the integrin β3+ population.
# [15] = systemic erlotinib treatment for 7-8 weeks
smiles,measurement,setting,value
CC(C)C[C@H](NC(=O)[C@H](Cc1ccccc1)NC(=O)c1cnccn1)B(O)O [bortezomib],"tumorsphere formation in vitro, combination with erlotinib",[1],decreased tumorsphere formation
same,"tumor growth, monotherapy",[2],failed to impact tumor growth
same,"tumor growth in vivo, combination with erlotinib",[2],completely suppressed tumor growth
N.N.[Cl][Pt][Cl] [cisplatin],effect of αvβ3 expression on drug resistance (tumor sphere formation),[3],failed to protect cells
same,impact of integrin β3 expression on resistance,[1],did not impact resistance
same,"effect of β3 expression on drug response, cells growing in 3D",[4],did not impact the response
C[C@]1(O)C[C@@H](c2nc(-c3ccc4ccc(-c5ccccc5)nc4c3)c3c(N)nccn32)C1 [OSI-906],effect of αvβ3 expression on drug resistance (tumor sphere formation),[3],induced resistance
same,"effect of β3 expression on drug response, cells growing in 3D",[4],reduced sensitivity
CS(=O)(=O)CCNCc1ccc(-c2ccc3ncnc(Nc4ccc(OCc5cccc(F)c5)c(Cl)c4)c3c2)o1 [lapatinib],"effect of β3 expression on drug response, cells growing in 3D",[4],reduced sensitivity
O=C(Nc1cc(Cl)cc2c1[nH]c1cnccc12)c1cccnc1 [PS-1145],response of colonies / tumorsphere formation to single agent,[5],resistant
same,"tumorsphere formation, combination with erlotinib",[5],decreased tumorsphere formation
"Nc1cccc2c1CN(C1CCC(=O)NC1=O)C2=O (racemic) [lenalidomide, (RS)-3-(4-amino-1-oxo-3H-isoindol-2-yl)piperidine-2,6-dione]",response of colonies / tumorsphere formation to single agent,[5],resistant
same,"tumorsphere formation, combination with erlotinib",[5],decreased tumorsphere formation
same,"tumorsphere formation in vitro, combination with erlotinib",[1],decreased tumorsphere formation
same,"tumor growth, monotherapy",[2],failed to impact tumor growth
same,"tumor growth in vivo, combination with erlotinib",[2],completely suppressed tumor growth
Nc1ccn([C@@H]2O[C@H](CO)[C@@H](O)C2(F)F)c(=O)n1 [gemcitabine],effect of αvβ3 expression on drug resistance (tumor sphere formation),[3],failed to protect cells
same,impact of integrin β3 expression on resistance,[1],did not impact resistance
same,"effect of β3 expression on drug response, cells growing in 3D",[4],did not impact the response
"C#Cc1cccc(Nc2ncnc3cc(OCCOC)c(OCCOC)cc23)c1 [erlotinib, N-(3-ethynylphenyl)-6,7-bis(2-methoxyethoxy) quinazolin-4-amine]",response of colonies / tumorsphere formation to single agent,[5],resistant
same,"erlotinib resistance, ligation competent vs incompetent integrin αvβ3",[3]; FG cells transfected with WT β3 or D119A mutant,same degree of erlotinib resistance
same,effect of αvβ3 expression on drug resistance (tumor sphere formation),[3],dramatically increased erlotinib resistance
same,increase in tumor cell sensitivity to erlotinib after knockdown of αvβ3,[6],10 fold
same,erlotinib resistance of orthotopic pancreatic tumors with ectopic β3 expression,"[7]; FG vs FG-β3 orthotopic tumors, systemic treatment",dramatically increased erlotinib resistance; also recorded: conferred erlotinib resistance
same,increase in αvβ3 expression,"[7]; orthotopic FG pancreatic tumors, four weeks of erlotinib treatment",10 fold
same,EGFR phosphorylation in tumor lysates (immunoblot),[7]; orthotopic FG tumors after 10 days of erlotinib,suppressed EGFR phosphorylation
same,time until moribund,"[8]; erlotinib 100 mg/kg/day by oral gavage, start 3 weeks after tumor cell injection",~58 days
same,development of resistance,[8]; [15],developed resistance
same,integrin αvβ3 expression compared with vehicle-treated tumors,[8]; [15],qualitative increase in integrin αvβ3 expression
same,levels / activation of phosphorylated TBK1 and NF-κB,[9],reduced; also recorded: decreased the activation
same,erlotinib response,"[1]; H1650 cells, wildtype KRAS and mutant EGFR",resistant
same,erlotinib response,"[1]; tumor cell lines with oncogenic KRAS: FG, H441, and CAPAN1",sensitive
same,disease progression after days of erlotinib therapy,[10]; Patient 1,920 days
same,disease progression after days of erlotinib therapy,[10]; Patient 2,92 days
same,disease progression after days of erlotinib therapy,[10]; Patient 3,120 days
same,initial response,[10]; all 3 patients,partial response
same,integrin β3 expression in biopsies after vs before erlotinib resistance,"[10]; paired lung tumor biopsies, immunohistochemistry",qualitative increase in integrin β3 expression; also recorded: qualitatively higher
same,αvβ3 (CD61) status of human lung cancer cells detected in the circulation,[11],positive for αvβ3
same,"effect of β3 expression on drug response, cells growing in 3D",[4],reduced sensitivity
same,integrin β3 expression in erlotinib resistant vs vehicle-treated tumors,[12],significantly higher
same,integrin αvβ3 / β3 expression after prolonged erlotinib exposure in vitro,[13],the greater the expression level of αvβ3; also recorded: induction of β3 expression
same,erlotinib resistance after knockdown of integrin β3,[14],overcame erlotinib resistance
